Laboratory results taken from US20260108548A1, “COMPOSITION OF PAEONIFLORIN AND ISOLIQUIRITIGENIN AND USE THEREOF” (HENAN UNIVERSITY OF CHINESE MEDICINE, priority 2023, published 2026).

How the values were obtained:
Format in all cases: in vivo, SD rats
[1] = tested on: rat pulmonary fibrosis model; assay: Lung tissue pathology, H&E and Masson staining, Szapiel scoring, Example 1; settings: for Alveolitis (score): H&E staining; for Alveolitis (score) / Pulmonary fibrosis (score): score 0-3, doses per Table 4, 14 days, X ± SE, N = 6; for Pulmonary fibrosis (score): Masson staining; for alveolitis scores, compared with the model group: P<0.01, P<0.05
Experimental: (§1) A rat pulmonary fibrosis model was prepared using a one-time intratracheal instillation of bleomycin. After the rat was anesthetized by intraperitoneal injection of 10% chloral hydrate (3.0 ml/kg), it was tilted back and fixed on a rat board and irradiated with light source on the throat, and the glottis was seen to open and close in an orderly manner with breathing when the tongue was gently lifted to open the mouth. The indwelling needle was gently pushed into the trachea as the glottis opened and closed, the needle core was pulled out, and whether tracheal intubation was successful was verified by swing of a cotton thread. Bleomycin was injected into the trachea at a dose of 5 mg/kg, and 0.5 ml of air was further injected to ensure the depth of the drug. The rat was held upright and rocked from side to side to ensure even distribution of the drug in the lung. The anesthetized rat was placed on an electric blanket to maintain body temperature. After waking up, it is placed into a corresponding cage. The rats were fed normally until the 28th day, drinking pure water and eating sterile feed freely every day.
(§2) The modeling day was set as day 0.
The left lung was fixed with 10% formaldehyde for 72 hours, embedded in paraffin, sectioned at 4 μm for HE and Masson staining.
Pathological scoring of alveolitis and pulmonary fibrosis was performed according to the Szapiel method, the degree of alveolitis was determined by HE staining, and the degree of pulmonary fibrosis was determined by Masson staining.
The pathological changes in lung tissue were observed using an optical microscope. 6 sections were selected from each group and 6 fields were selected from each section.

[2] = tested on: rat pulmonary fibrosis model; assay: Lung function (FinePointe PFT) in bleomycin pulmonary fibrosis rats, Example 1; settings: for Cydn / FEV0.3: bleomycin 5 mg/kg intratracheal, intragastric once daily day 29-42, doses per Table 4, X ± SE, N = 10
Experimental: as §1, §2
Before collecting the sample, the rat was anesthetized and submitted to a tracheotomy, and the tracheal tube was inserted into the rat's trachea and fixed. The FinePointe™ series PFT measurement system was used to detect the rat's forced vital capacity (FVC), forced expiratory volume in 0.3 s (FEV 0.3), vital capacity (VC), and dynamic lung compliance (Cydn).

CoL I = CoL I expression in lung tissue by immunohistochemistry, Example 1; settings: for COL I (IOD): lung tissue IHC, doses per Table 4, 14 days, X ± SE, N = 6; for expression of CoL I protein, compared with the model group: P<0.01, P<0.05
Experimental: as §1, §2
(§3) The detection was performed by Immunohistochemistry.
(§4) The lung tissue was sliced into 4 μm sections and baked at 60° C. for 3 hours. The paraffin sections were dewaxed in xylene, dehydrated in gradient alcohols, and washed in distilled water for 2 minutes in order. The washed sections were then boiled in 0.01 M citrate buffer in a microwave oven for antigen retrieval. A 3% […] was added dropwise to the sections to block endogenous peroxidase. After the sections were blocked with a 5% BSA blocking solution and incubated at 37° C. for 30 minutes, the primary antibody was added dropwise thereto (the dilution ratio was 1:500 for CoL I, and 1:2000 for α-SMA), and the sections were incubated overnight in a humid box at 4° C. HRP-labeled goat anti-rabbit secondary antibody was added dropwise, and the sections were incubated at 37° C. for 20 minutes; and then SABC was added dropwise and the sections were incubated at 37° C. for 30 minutes. Thereafter, a freshly prepared DAB chromogenic solution was added dropwise, and the sections were observed under a microscope, and the color development was stopped once brownish yellow appeared. The sections were counterstained with hematoxylin for 30 seconds, differentiated with a 1% hydrochloric acid in alcohol for 3 seconds; and dehydrated in gradient alcohols in sequence. The sections were dried in a fume hood, sealed with neutral gum, and dried in the air. Images were collected with Olympus-DP70 microscope (Image-Pro Plus 6.0, IPP 6.0), 6 fields were randomly selected for each section, and the image integrated optical density (IOD) was calculated.

[3] = tested on: rat pulmonary fibrosis model; assay: R value comprehensive evaluation of 8 indicators, Example 1; settings: 8 indicators, R=1 best effect, R=2 no corrective effect, X ± SE, N = 8
Experimental: The data were standardized and the Rcomprehensive value data set was established (Rcomprehensive=R−(−2)). […] When Rcomprehensive<1, it means that the comprehensive corrective degree of the drug on such indicators exceeds the normal value.
A total of 8 indicators, i.e., lung function (FVC, FEV0.3, IC, Cydn), lung tissue pathology (H&E staining, Masson staining), and collagen deposition (CoL I, α-SMA) were calculated using the R value comprehensive evaluation method.

α-SMA = α-SMA expression in lung tissue by immunohistochemistry, Example 1; settings: for α-SMA (IOD): lung tissue IHC, doses per Table 4, 14 days, X ± SE, N = 6; for expression of α-SMA protein, compared with the model group: P<0.05
Experimental: as §1, §2, §3, §4

[4] = tested on: rat pulmonary fibrosis model; assay: Lung function in bleomycin pulmonary fibrosis rats, Example 2; settings: for FEV0.3, compared with the model group: P<0.01, P<0.05; for Cydn / FEV0.3 / FVC: isoliquiritigenin, paeoniflorin, combination each 0.55 mg/kg/d intragastric, day 29-42, X ± SE, N = 10
Experimental: In order to evaluate the difference in the efficacy of isoliquiritigenin and paeoniflorin alone and in combination, a study was conducted by splitting the Formula 8 into isoliquiritigenin, paeoniflorin and combination thereof, each adopting the dose of 0.55 mg/kg/d.
The experimental materials and research methods were the same as those in Example 1.
A total of 72 rats were randomly divided into blank group, model group, isoliquiritigenin group, paeoniflorin group, combination group, and pirfenidone group, 6 groups in total, 12 rats in each group, and 6 female/group, 6 male/group. The modeling day was set as day 0. From the 29th day, the blank group (normal rats without modeling) and the model group were administered intragastrically with physiological saline (2 ml/rat), the isoliquiritigenin group was administered with isoliquiritigenin (0.55 mg/kg/d), the paeoniflorin group was administered with paeoniflorin (0.55 mg/kg/d), and the combination group was administered with isoliquiritigenin+paeoniflorin (0.55 mg/kg/d), once daily, for 14 days, and the samples were collected at the end of the 42nd day.
Before collecting the sample, the rats were anesthetized and submitted to a tracheotomy, and the tracheal tube was inserted into the rat's trachea and fixed. The FinePointe™ series PFT measurement system was used to detect the rat's forced vital capacity (FVC), forced expiratory volume in 0.3 s (FEV 0.3), vital capacity (VC), and dynamic lung compliance (Cydn).

[5] = tested on: rat pulmonary fibrosis model; assay: Lung tissue pathology, H&E and Masson staining, Szapiel scoring, Example 2; settings: for Alveolitis (score): H&E staining; for Alveolitis (score) / Pulmonary fibrosis (score): each 0.55 mg/kg/d, 14 days, X ± SE, N = 6; for Pulmonary fibrosis (score): Masson staining
Experimental: The experimental materials and research methods were the same as those in Example 1. […] The modeling day was set as day 0. […] The left lung was fixed with 10% formaldehyde for 72 hours, embedded in paraffin, sectioned at 4 μm for HE and Masson staining. Pathological scoring of alveolitis and pulmonary fibrosis was performed according to the Szapiel method, the degree of alveolitis was determined by HE staining, and the degree of pulmonary fibrosis was determined by Masson staining. The pathological changes in the lung tissue were observed using an optical microscope. 6 sections were selected from each group and 6 fields were selected from each section.

[6] = tested on: rat pulmonary fibrosis model; assay: Lung function in bleomycin pulmonary fibrosis rats, Example 2; settings: for IC: isoliquiritigenin, paeoniflorin, combination each 0.55 mg/kg/d intragastric, day 29-42, X ± SE, N = 10

COc1ccc(-c2oc3c(CC=C(C)C)c(O[C@@H]4O[C@H](CO)[C@@H](O)[C@H](O)[C@H]4O)cc(O)c3c(=O)c2O[C@@H]2O[C@@H](C)[C@H](O)[C@@H](O)[C@H]2O)cc1 [Formula 3, icariin]
Alveolitis (score) [1]: 0.94 ± 0.39 score | Pulmonary fibrosis (score) [1]: 1.33 ± 0.31 score | alveolitis scores, compared with the model group [1]: significantly reduced | Cydn [2]: 0.34 ± 0.05 mL/s | FEV0.3 [2]: 10.46 ± 1.58 mL/s | COL I (IOD) (CoL I): 17.80 ± 1.44 IOD | Total efficacy related indicator R value [3]: 1.76 ± 0.16^∘^ | α-SMA (IOD) (α-SMA): 12.03 ± 1.87 IOD

O=C(/C=C/c1ccc(O)cc1)c1ccc(O)cc1O [Formula 4, isoliquiritigenin]
Alveolitis (score) [1]: 1.72 ± 0.25 score | Pulmonary fibrosis (score) [1]: 1.78 ± 0.33 score | FEV0.3, compared with the model group [4]: increased | Cydn [4]: 0.32 ± 0.04 mL/s | FEV0.3 [4]: 11.09 ± 1.01 mL/s | FVC [4]: 11.34 ± 0.78 mL/s | Alveolitis (score) [5]: 1.68 ± 0.30 score | Pulmonary fibrosis (score) [5]: 1.74 ± 0.31 score | pulmonary fibrosis score, compared with the model group ([5]; P<0.01, P<0.05): could reduce | Cydn [2]: 0.30 ± 0.03 mL/s | FEV0.3 [2]: 10.42 ± 1.43 mL/s | expression of CoL I protein, compared with the model group (CoL I): significantly reduced | COL I (IOD) (CoL I): 15.54 ± 2.59 IOD | Total efficacy related indicator R value [3]: 1.82 ± 0.11^∘∘ | α-SMA (IOD) (α-SMA): 12.20 ± 0.89 IOD | IC [6]: 9.03 ± 0.88 mL/s

COc1ccc(-c2cc(=O)c3c(OC)c(OC)c(OC)c(OC)c3o2)cc1OC [Formula 5, nobiletin]
Alveolitis (score) [1]: 1.39 ± 0.54 score | Pulmonary fibrosis (score) [1]: 1.56 ± 0.49 score | Cydn, compared with the model group ([2]; P<0.05): increased | Cydn [2]: 0.35 ± 0.02 mL/s | FEV0.3 [2]: 11.44 ± 1.41 mL/s | COL I (IOD) (CoL I): 18.40 ± 0.89 IOD | Total efficacy related indicator R value [3]: 1.48 ± 0.46 | expression of α-SMA protein, compared with the model group (α-SMA): significantly reduced | α-SMA (IOD) (α-SMA): 9.030 ± 0.8 IOD

C[C@H]1CC[C@@H]2N(C1)C[C@H]1[C@@H]3C[C@H]4[C@@H](C[C@H](O)[C@H]5C[C@@H](O)CC[C@@]54C)[C@@H]3CC[C@@H]1[C@]2(C)O [Formula 6, peimine]
Alveolitis (score) [1]: 1.17 ± 0.19 score | Pulmonary fibrosis (score) [1]: 1.39 ± 0.23 score | alveolitis scores, compared with the model group [1]: significantly reduced | Cydn [2]: 0.30 ± 0.03 mL/s | FEV0.3 [2]: 12.04 ± 1.36 mL/s | COL I (IOD) (CoL I): 17.37 ± 0.89 IOD | Total efficacy related indicator R value [3]: 1.57 ± 0.29 | expression of α-SMA protein, compared with the model group (α-SMA): significantly reduced | α-SMA (IOD) (α-SMA): 9.647 ± 0.8 IOD

Cc1ccc(=O)n(-c2ccccc2)c1 [Pirfenidone]
Alveolitis (score) [1]: 1.33 ± 0.24 score | Pulmonary fibrosis (score) [1]: 1.33 ± 0.37 score | FEV0.3, compared with the model group [4]: increased | Cydn [4]: 0.33 ± 0.03 mL/s | FEV0.3 [4]: 13.46 ± 1.04 mL/s | FVC [4]: 12.34 ± 1.11 mL/s | Alveolitis (score) [5]: 1.43 ± 0.28 score | Pulmonary fibrosis (score) [5]: 1.46 ± 0.39 score | alveolitis score, compared with the model group ([5]; P<0.01, P<0.05): significantly reduced | pulmonary fibrosis score, compared with the model group ([5]; P<0.01, P<0.05): significantly reduced | IC, compared with the model group ([2]; P<0.01, P<0.05): significantly increased | Cydn [2]: 0.33 ± 0.03 mL/s | FEV0.3 [2]: 10.68 ± 0.97 mL/s | expression of CoL I protein, compared with the model group (CoL I): significantly reduced | COL I (IOD) (CoL I): 10.41 ± 0.63 IOD | Total efficacy related indicator R value [3]: 1.61 ± 0.32^#^ | α-SMA (IOD) (α-SMA): 12.57 ± 1.17 IOD | IC, compared with the model group ([6]; P<0.01, P<0.05): increased | IC [6]: 10.77 ± 0.83 mL/s
